Data from PMC5071873, “The Effects of Puerarin on Rat Ventricular Myocytes and the Potential Mechanism” (Scientific Reports, 2016).
Like-named read-outs stand apart in the source and are kept apart here.

Assays:
Type in all cases: cell-based
Kv7.1 = target: T1, Kv7.1 (Homo sapiens, UniProt P51787); assay: Whole-cell patch clamp of Kv7.1 currents (voltage steps) in transfected HEK293 cells; conditions: for IC50: HEK293, non-linear Hill fit, n = 6 each point; for Kv7.1-tail current density / Kv7.1 current density: at 40 mV; for Kv7.1-tail current density: control 10.4 ± 0.6; for Kv7.1 current density: control 24.3 ± 1.1
T1 construct: expressed in transfected cells; host or cells: HEK293
Protocol: (§1) The Tyrode’s solution contained (mM): 126 NaCl, 5.4 KCl, 1.8 CaCl2, 1 MgCl2, 0.33 NaH2PO4, 10 HEPES and 10 glucose, pH 7.4 (adjusted with NaOH). The Ca^2+-free Tyrode’s solution was prepared by removing CaCl2 from the Tyrode’s solution. The Kreb’s solution used for cell storage contained (mM): 70 glutamic acid, 30 KCl, 15 taurine, 0.5 MgCl2, 10 KH2PO4, 0.5 EGTA, 10 HEPES, 10 glucose, and 1% albumin, pH 7.4 (adjusted with KOH). The enzyme solution used for the rat cardiomyocyte isolation contained 0.08 g/L collagenase (type II) and 1.0 g/L BSA in Kreb’s solution. For action potential recording on cardiomyocyte, the pipette solution contained (mM): 100 potassium aspartate, 30 KCl, 1 MgCl2, 5 Mg-ATP, 5 EGTA, 5 HEPES, pH 7.3 (adjusted with KOH); the Tyrode’s solution was used as the standard bath solution. For whole-cell recording of IKs on myocytes, the pipette solution contained (mM): 125 potassium aspartate, 20 KCl, 1 MgCl2, 5 Mg-ATP, 10 EGTA, 5 HEPES, pH 7.3 (adjusted with KOH); the bath solution contained (mM): 132 NaCl, 4 KCl, 1.8 CaCl2, 1.2 MgCl2, 10 HEPES, 5 glucose, pH 7.4 (adjusted with NaOH). 3 μM nifedipine and 5 μM E-4031 were used to block the calcium current and IKr, respectively. For whole-cell recording on HEK-293 cells, the pipette solution contained (mM): 140 KCl, 2 MgCl2, 10 HEPES, 0.1 EGTA, 4 K2-ATP, pH 7.3 (adjusted with KOH); the bath solution contained (mM): 120 NaCl, 5 KCl, 1.5 CaCl2, 1 MgCl2, 10 HEPES, 10 glucose, pH 7.4 (adjusted with NaOH). For single-channel recording, the pipette solution (extracellular) contained (mM): 145 KCl, 10 HEPES, 10 glucose, pH 7.4 (adjusted with KOH); the bath solution (intracellular) contained (mM): 145 KCl, 1.2 MgCl2, 10 HEPES, 0.1 EGTA, pH 7.38 (adjusted with KOH).
(§2) Cell suspensions were transferred into a chamber on the stage of a Nikon Eclipse Ti inverted microscope (Tokyo, Japan). The whole-cell recordings were performed using isolated single ventricular myocytes. Patch electrodes were pulled from a horizontal microelectrode puller (P-1000, Sutter Instrument Co, USA) and fire polished to final tip resistance of 4.0–8.0 MΩ when filled with internal solutions. Signals were amplified with an Axopatch 200B amplifier (Axon Instruments, USA) and filtered at 1 kHz. The pCLAMP 9.0 software was used to generate current and voltage clamp protocols, acquire data, and analyse the current traces. The whole-cell series resistance was compensated to more than 80%. All of the experiments were performed at room temperature (22 ± 1 °C). The whole-cell IK1 was elicited by a ramp voltage protocol from −140 to + 40 mV in 1 s, or at a 0 mV holding potential to test potentials from −140 to + 40 mV in 10 mV increments. The IK1 was calculated as the difference between the peak inward current and the holding current level. The whole-cell Kv7.1/IKs were elicited from a −30 mV holding potential to test potentials from −80 to + 40 mV in 10 mV increments.
(§3) Human Kir2.1 cDNA, Kir2.3 cDNA, Kv7.1 cDNA and KCNE1 cDNA, was cloned in Human Embryonic Kidney 293 cells, respectively. In some cases, Kv7.1 cDNA and KCNE1 cDNA were simultaneously cloned in Human Embryonic Kidney 293 cells.

IKs = target: T2, IKs (Rattus norvegicus, UniProt Q9Z0N7); assay: Whole-cell recording of IKs on rat ventricular myocytes; conditions: puerarin 100 μM
T2 construct: endogenous in cells; host or cells: isolated adult rat ventricular myocytes
Protocol: as §1, with “3 μM nifedipine and 5 μM E-4031 were used to block the calcium current and IKr, respectively. For whole-cell recording on HEK-293 cells, the pipette solution contained (mM): 140 KCl, 2 MgCl2, 10 HEPES, 0.1 EGTA, 4 K2-ATP, pH 7.3 (adjusted with KOH); the bath solution contained (mM): 120 NaCl, 5 KCl, 1.5 CaCl2, 1 MgCl2, 10 HEPES, 10 glucose, pH 7.4 (adjusted with NaOH). For single-channel recording, the pipette solution (extracellular) contained (mM): 145 KCl, 10 HEPES, 10 glucose, pH 7.4 (adjusted with KOH); the bath solution (intracellular) contained (mM): 145 KCl, 1.2 MgCl2, 10 HEPES, 0.1 EGTA, pH 7.38 (adjusted with KOH).” left out
Cell suspensions were transferred into a chamber on the stage of a Nikon Eclipse Ti inverted microscope (Tokyo, Japan). […] The IK1 was calculated as the difference between the peak inward current and the holding current level. […]

[1] = target: T3, IKs channels (KCNQ and KCNE) (Homo sapiens, UniProt P51787); assay: Whole-cell patch clamp of IKs currents (Kv7.1 + KCNE1, voltage steps) in transfected HEK293 cells; conditions: for IC50: HEK293, non-linear Hill fit, n = 6 each point; for IKs-tail current density / IKs current density: at 40 mV; for IKs-tail current density: control 23.5 ± 1.2; for IKs current density: control 33.8 ± 3.2
T3 construct: expressed in transfected cells; host or cells: HEK293
Protocol: as §1, §2, §3

IKs channel = target: T4, IKs channel (Homo sapiens, UniProt P51787); assay: Single-channel inside-out patch clamp recording of IKs; conditions: puerarin 100 μM, inside-out, intracellular side
T4 construct: expressed in transfected cells; host or cells: HEK293
Protocol: as §1, with “3 μM nifedipine and 5 μM E-4031 were used to block the calcium current and IKr, respectively. For whole-cell recording on HEK-293 cells, the pipette solution contained (mM): 140 KCl, 2 MgCl2, 10 HEPES, 0.1 EGTA, 4 K2-ATP, pH 7.3 (adjusted with KOH); the bath solution contained (mM): 120 NaCl, 5 KCl, 1.5 CaCl2, 1 MgCl2, 10 HEPES, 10 glucose, pH 7.4 (adjusted with NaOH). For single-channel recording, the pipette solution (extracellular) contained (mM): 145 KCl, 10 HEPES, 10 glucose, pH 7.4 (adjusted with KOH); the bath solution (intracellular) contained (mM): 145 KCl, 1.2 MgCl2, 10 HEPES, 0.1 EGTA, pH 7.38 (adjusted with KOH).” left out
Single-channel activity was recorded at a series of holding levels ranging from 10 mV of 50 mV. […] Single-channel events were listed and analysed by pclampfit 9.0 (single-channel search-in-analyse function). […]

`O=c1c(-c2ccc(O)cc2)coc2c([C@@H]3O[C@H](CO)[C@@H](O)[C@H](O)[C@H]3O)c(O)ccc12` [Puerarin, 8-c-glucoside of daidzein] was tested, and the IC50 (Kv7.1; read-out: IC50, inhibition of Kv7.1 at the peak currents) was 36 µM, the IC50 (Kv7.1; read-out: IC50, inhibition of Kv7.1 at the tail currents) was 39.8 µM and the “Hill coefficient, inhibition of Kv7.1” value (Kv7.1; non-linear Hill fit) was 0.997. The Kv7.1-tail current density (Kv7.1; puerarin 10 μM) was 8.8 ± 0.7 pA/pF, the Kv7.1 current density (Kv7.1; puerarin 10 μM) was 19.1 ± 1.0 pA/pF and the “effect on Kv7.1 current activated by isoproterenol, forskolin or 8-Br-cAMP” value (Kv7.1; puerarin 100 μM) was “antagonized such activation effect”. The Kv7.1-tail current density (Kv7.1; puerarin 100 μM) was 3.8 ± 0.6 pA/pF, the Kv7.1 current density (Kv7.1; puerarin 100 μM) was 7.9 ± 0.8 pA/pF and the Kv7.1-tail current density (Kv7.1; puerarin 1 mM) was 2.5 ± 0.9 pA/pF. The Kv7.1 current density (Kv7.1; puerarin 1 mM) was 6.1 ± 0.4 pA/pF, the Kv7.1-tail current density (Kv7.1; puerarin 10 mM) was 2.0 ± 0.5 pA/pF and the Kv7.1 current density (Kv7.1; puerarin 10 mM) was 4.8 ± 0.8 pA/pF. The “effect on forskolin-activated IKs current in rat cardiac myocytes” value (IKs) was “antagonized such activation effect”, the IC50 ([1]; read-out: IC50, inhibition of IKs at the peak currents) was 55.6 µM and the IC50 ([1]; read-out: IC50, inhibition of IKs at the tail currents) was 59.8 µM. For the same molecule, the “Hill coefficient, inhibition of IKs” value ([1]; non-linear Hill fit) was 0.989, the IKs-tail current density ([1]; puerarin 10 μM) was 17.8 ± 1.5 pA/pF and the IKs current density ([1]; puerarin 10 μM) was 25.6 ± 2.4 pA/pF. The IKs-tail current density ([1]; puerarin 100 μM) was 9.7 ± 1.1 pA/pF, the IKs current density ([1]; puerarin 100 μM) was 15.7 ± 1.9 pA/pF and the IKs-tail current density ([1]; puerarin 1 mM) was 6.4 ± 1.2 pA/pF. It also gave an IKs current density ([1]; puerarin 1 mM) of 6.0 ± 1.3 pA/pF, an IKs-tail current density ([1]; puerarin 10 mM) of 5.2 ± 1.3 pA/pF and an IKs current density ([1]; puerarin 10 mM) of 5.4 ± 1.7 pA/pF. For the same molecule, the “open probability of IKs channel” value (IKs channel) was “reduced”.
